Data published in ChEMBL document CHEMBL5620346, “Current scenario of pyrazole hybrids with in vivo therapeutic potential against cancers” (Eur J Med Chem, 2023).

Legend:
K562 = assay: Cytotoxicity against human K562 cells assessed as reduction in cell viability incubated for 48 hrs by MTT assay; assay type: functional, cell-based; settings: K562, 48 h
HT-29 [1] = assay: Antitumor activity against human HT-29 cells xenografted in BALB/c mouse assessed as reduction in tumor growth at 25 mg/kg, ip relative to control; assay type: functional; design: scale not given: the % may be the effect or the level left
HT-29 [2] = assay: Cytotoxicity against human HT-29 cells assessed as reduction in cell viability incubated for 48 hrs by MTT assay; assay type: functional, cell-based; settings: HT-29, 48 h
MCF7 [3] = assay: Cytotoxicity against human MCF7 cells assessed as reduction in cell viability incubated for 48 hrs by MTT assay; assay type: functional, cell-based; settings: MCF7, 48 h
H22 [4] = assay: Antitumor activity against mouse H22 cells implanted in Kunming mouse assessed as reduction in tumor growth at 20 mg/kg, iv relative to control; assay type: functional; settings: read-out: TGI
H22 [5] = assay: Antitumor activity against mouse H22 cells implanted in Kunming mouse assessed as reduction in tumor growth at 10 mg/kg, iv relative to control; assay type: functional; settings: read-out: TGI
HT-29 [6] = assay: Antitumor activity against human HT-29 cells xenografted in po dosed nude mouse assessed as reduction in tumor growth at 20 mg/kg relative to control; assay type: functional; settings: read-out: TGI
[7] = Oral bioavailability in mouse at 1 mg/kg; assay type: ADME, organism-based; settings: in vivo
HT-29 [8] = assay: Antiproliferative activity against human HT-29 cells assessed as reduction in cell viability incubated for 72 hrs by MTT assay; assay type: functional, cell-based; settings: HT-29, 72 h
HCT-116 [9] = assay: Antiproliferative activity against human HCT-116 cells assessed as reduction in cell viability incubated for 72 hrs by MTT assay; assay type: functional, cell-based; settings: HCT-116, 72 h
[10] = Tmax in mouse at 1 mg/kg, sc; assay type: ADME, organism-based; settings: in vivo
HGC-27 = assay: Antiproliferative activity against human HGC-27 cells assessed as reduction in cell viability incubated for 72 hrs by MTT assay; assay type: functional, cell-based; settings: HGC-27, 72 h
[11] = Cmax in mouse at 1 mg/kg, sc; assay type: ADME, organism-based; settings: in vivo
HeLa = assay: Antiproliferative activity against human HeLa cells assessed as reduction in cell viability incubated for 72 hrs by MTT assay; assay type: functional, cell-based
MDA-MB-435 = assay: Antitumor activity against human MDA-MB-435 cells xenografted in Sprague-Dawley rat model assessed as reduction in tumor volume at 50 mg/kg, ip relative to control; assay type: functional; design: scale not given: the % may be the effect or the level left
[12] = target: Ubiquitin carboxyl-terminal hydrolase 8 (Homo sapiens, UniProt P40818); assay: Inhibition of human USP8 expressed in Escherichia coli using K63-linked di-ubiquitin (ENZO BML-UW0730-0050) as substrate preincubated for 15 mins followed by substrate addition and measured after 20 mins by fluorescence based analysis
HT-29 [13] = assay: Antiproliferative activity against human HT-29 cells assessed as cell growth inhibition incubated for 72 hrs by MTT assay; assay type: functional, cell-based; settings: HT-29, 72 h
HT-29 [14] = assay: Antitumor activity against human HT-29 cells xenografted in nude mouse assessed as reduction in tumor growth at 50 mg/kg, po administered for 21 days relative to control; assay type: functional; settings: HT-29, 504 h, time 21 day, read-out: TGI
HT-29 [15] = assay: Antitumor activity against human HT-29 cells xenografted in nude mouse assessed as reduction in tumor growth at 50 mg/kg, ip administered for 21 days relative to control; assay type: functional; settings: HT-29, 504 h, time 21 day, read-out: TGI
MCF7 [16] = assay: Antiproliferative activity against human MCF7 cells assessed as cell growth inhibition incubated for 72 hrs by MTT assay; assay type: functional, cell-based; settings: MCF7, 72 h
KCL-22 = assay: Antitumor activity against human KCL-22 cells xenografted in mouse assessed as reduction in tumor growth at 3 mg/kg, po relative to control; settings: KCL-22, po, read-out: TGI
[17] = Half life in mouse at 40 mg/kg, po; assay type: ADME, organism-based; settings: in vivo
[18] = Tmax in mouse at 40 mg/kg, po; assay type: ADME, organism-based; settings: in vivo
[19] = Oral bioavailability in rat; settings: in vivo
[20] = Oral bioavailability in dog; settings: in vivo
OE19 [21] = assay: Antitumor activity against human OE19 cells xenografted in NOD/SCID mouse model assessed as tumor growth inhibition at 25 mg/kg, ip administered for 14 days relative to control; assay type: functional; settings: OE19, 336 h, time 14 day, read-out: TGI
OE19 [22] = assay: Antitumor activity against human OE19 cells xenografted in NOD/SCID mouse model assessed as tumor growth inhibition at 25 mg/kg, ip administered for 14 days in presence of flavopiridol relative to control; assay type: functional; design: scale not given: the % may be the effect or the level left; settings: time 14 day
OE19 [23] = assay: Antitumor activity against human OE19 cells xenografted in NOD/SCID mouse model assessed as tumor growth inhibition at 25 mg/kg, ip administered for 46 days relative to control; assay type: functional; design: scale not given: the % may be the effect or the level left; settings: time 46 day
NCI-H460 = assay: Antitumor activity against human NCI-H460 cells xenografted in nude mouse assessed as tumor growth inhibition at 6.25 mg/kg, po administered twice daily for 14 days in presence of 2-deoxyglucose relative to control; assay type: functional; design: scale not given: the % may be the effect or the level left; settings: time 14 day
HCT-116 [24] = assay: Antitumor activity against human HCT-116 cells xenografted in BALB/c nude mouse assessed as tumor growth inhibition at 25 mg/kg, po administered once a daily for 13 consecutive days relative to control; assay type: functional; settings: read-out: TGI
[25] = Cytotoxicity against human OATL4 cells assessed as cell growth inhibition incubated for 72 hrs by MTT assay; assay type: functional, cell-based; settings: OATL4, 72 h
[26] = target: Heat shock protein HSP 90-beta (Homo sapiens, UniProt P08238); assay: Inhibition of human recombinant HSP90beta expressed in Escherichia coli BL21 (DE3) incubated for 12 hrs
[27] = Cytotoxicity against human HuT 102 cells assessed as reduction in cell growth incubated for 72 hrs by MTT assay; assay type: functional, cell-based; settings: HuT-102, 72 h
[28] = Cytotoxicity against human KOB cells assessed as cell growth inhibition incubated for 72 hrs by MTT assay; assay type: functional, cell-based
[29] = Antitumor activity against human HuT 102 cells xenografted in mouse assessed as reduction in tumor growth at 14 mg/kg, po relative to control; assay type: functional; settings: read-out: TGI
[30] = target: Heat shock protein HSP 90-alpha (Homo sapiens, UniProt P07900); assay: Inhibition of human recombinant HSP90alpha expressed in Escherichia coli BL21 (DE3) incubated for 12 hrs by

Chain of Ubiquitin carboxyl-terminal hydrolase 8 (P40818 whole entry): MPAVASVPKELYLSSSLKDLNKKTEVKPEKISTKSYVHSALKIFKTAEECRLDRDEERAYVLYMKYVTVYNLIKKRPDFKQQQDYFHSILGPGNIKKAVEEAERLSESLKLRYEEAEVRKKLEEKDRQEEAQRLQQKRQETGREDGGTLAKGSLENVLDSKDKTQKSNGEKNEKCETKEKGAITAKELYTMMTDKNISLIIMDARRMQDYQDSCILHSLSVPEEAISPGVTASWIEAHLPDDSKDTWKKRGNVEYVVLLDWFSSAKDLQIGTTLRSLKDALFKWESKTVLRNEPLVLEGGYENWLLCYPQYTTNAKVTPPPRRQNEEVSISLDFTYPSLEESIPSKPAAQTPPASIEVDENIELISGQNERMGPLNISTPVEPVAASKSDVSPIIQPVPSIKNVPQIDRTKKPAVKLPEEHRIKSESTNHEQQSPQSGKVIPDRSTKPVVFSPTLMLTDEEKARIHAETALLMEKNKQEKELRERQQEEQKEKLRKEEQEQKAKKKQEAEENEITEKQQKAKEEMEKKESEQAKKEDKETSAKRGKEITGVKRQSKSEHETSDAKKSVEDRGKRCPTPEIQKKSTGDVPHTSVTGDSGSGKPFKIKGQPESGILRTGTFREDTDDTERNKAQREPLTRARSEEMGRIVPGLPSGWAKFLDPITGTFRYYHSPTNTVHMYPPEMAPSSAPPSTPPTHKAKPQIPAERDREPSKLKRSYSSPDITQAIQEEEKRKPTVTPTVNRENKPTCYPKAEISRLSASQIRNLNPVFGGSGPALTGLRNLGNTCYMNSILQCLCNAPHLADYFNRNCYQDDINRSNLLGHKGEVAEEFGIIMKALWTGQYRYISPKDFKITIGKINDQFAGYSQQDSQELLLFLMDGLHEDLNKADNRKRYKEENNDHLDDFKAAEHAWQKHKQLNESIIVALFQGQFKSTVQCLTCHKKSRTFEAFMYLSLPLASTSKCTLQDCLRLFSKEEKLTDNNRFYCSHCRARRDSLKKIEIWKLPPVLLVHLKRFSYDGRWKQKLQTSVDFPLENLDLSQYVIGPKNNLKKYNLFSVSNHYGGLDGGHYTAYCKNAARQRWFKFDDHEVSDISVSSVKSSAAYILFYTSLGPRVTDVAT
Chain of Heat shock protein HSP 90-beta (P08238 whole entry): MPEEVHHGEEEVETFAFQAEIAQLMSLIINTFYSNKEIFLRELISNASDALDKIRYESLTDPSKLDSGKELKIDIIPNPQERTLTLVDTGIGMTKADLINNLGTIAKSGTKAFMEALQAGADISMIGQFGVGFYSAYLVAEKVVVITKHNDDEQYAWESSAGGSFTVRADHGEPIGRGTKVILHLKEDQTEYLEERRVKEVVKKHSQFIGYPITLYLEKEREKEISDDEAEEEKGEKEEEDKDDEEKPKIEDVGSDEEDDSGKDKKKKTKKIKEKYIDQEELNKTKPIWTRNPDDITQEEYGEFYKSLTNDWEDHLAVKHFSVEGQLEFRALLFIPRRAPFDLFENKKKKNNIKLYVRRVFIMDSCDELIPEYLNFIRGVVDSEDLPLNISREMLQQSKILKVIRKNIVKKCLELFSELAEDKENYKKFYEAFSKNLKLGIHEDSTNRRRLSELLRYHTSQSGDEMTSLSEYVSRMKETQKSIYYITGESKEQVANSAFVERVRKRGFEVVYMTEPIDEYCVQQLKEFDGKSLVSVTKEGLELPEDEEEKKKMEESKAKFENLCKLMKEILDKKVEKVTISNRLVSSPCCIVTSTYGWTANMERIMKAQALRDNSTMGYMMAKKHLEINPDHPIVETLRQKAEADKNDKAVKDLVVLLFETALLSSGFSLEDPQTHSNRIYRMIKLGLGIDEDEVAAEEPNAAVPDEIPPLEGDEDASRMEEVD

O=C1NC(=O)/C(=C/c2ccc3cc(OCC(=O)N4N=C(c5ccc(F)cc5)CC4c4ccccc4Cl)ccc3c2)S1 (stereo unspecified)
IC50 (K562): 8200 nM | Activity (HT-29 [1]): 30% | IC50 (HT-29 [2]): 8200 nM | IC50 (MCF7 [3]): 8200 nM

COc1cccc(C2=NN(C(N)=O)C(c3cn(C)c4ccc(Br)cc34)C2)c1 (stereo unspecified)
inhibition in vivo at 20 mg/kg (H22 [4]): 76% | inhibition in vivo at 10 mg/kg (H22 [5]): 65%

COc1cc(/C=C2\CCCN3C(=O)C4C=NN(C)C4N=C23)cc(OC)c1OC (stereo unspecified)
inhibition in vivo at 20 mg/kg (HT-29 [6]): 61.7% | bioavailability [7]: 78.6% | IC50 (HT-29 [8]): 30 nM | IC50 (HCT-116 [9]): 30 nM | Tmax [10]: 1.67 h | IC50 (HGC-27): 30 nM | Cmax [11]: 68.8 ng/mL | IC50 (HeLa): 30 nM

Brc1ccc(-n2nc(-c3cccnc3)cc2-c2ccccc2)cc1
Activity (MDA-MB-435): 40% | IC50 [12]: 1200 nM

O=C1CN(CC(=O)N2N=C(c3ccccc3)CC2c2ccccc2)C(=O)N1 (stereo unspecified)
IC50 (HT-29 [13]): 10 nM | inhibition in vivo at 50 mg/kg (HT-29 [14]): 34% | inhibition in vivo at 50 mg/kg (HT-29 [15]): 31% | IC50 (MCF7 [16]): 690 nM

O=C(Nc1ccc(OC(F)(F)Cl)cc1)c1cnc(N2CC[C@@H](O)C2)c(-c2ccn[nH]2)c1 [ASCIMINIB]
inhibition in vivo at 3 mg/kg (KCL-22): 65% | half-life [17]: 5.5 h | Tmax [18]: 2.5 h

COc1cc(OC)c(F)c(COc2cnc(Nc3cnn(CCO)c3)nc2)c1F [ASP-5878]
bioavailability [19]: 76.1% | bioavailability [20]: 94.2%

C[C@@]1(C(=O)Nc2ccc(F)nc2)CCCN1c1nc(Nc2cc(C3CC3)n[nH]2)c2cccn2n1 [BMS-754807]
inhibition in vivo at 25 mg/kg (OE19 [21]): 52% | Activity (OE19 [22]): 92.2% | Activity (OE19 [23]): 61.8% | Activity (NCI-H460): 69%

O=c1[nH]cc(F)c(=O)[nH]1 [FLUOROURACIL]
inhibition in vivo at 25 mg/kg (HCT-116 [24]): 54.8%

CCc1cc(C(N)=O)ccc1-n1nc(C(C)C)c2c(-n3cnc(-c4cnn(C)c4)c3)ccnc21 [TAS-116]
IC50 [25]: 376 nM | IC50 [26]: 21.3 nM | IC50 [27]: 376 nM | IC50 [28]: 376 nM | inhibition in vivo at 14 mg/kg [29]: 70% | IC50 [30]: 34.7 nM
